Laboratory results as given in PMC10052652 (Molecules, 2023).

Legend:
[1] = target: T1, superoxide dismutase (SOD) (Homo sapiens, UniProt P00441); assay: biochemical; settings: read-out: Anti SOD IC50
Description: Pyrogallol auto-oxidation due to oxygen in the air can be inhibited by an enzyme that is naturally present in the body: superoxide dismutase (SOD). Furthermore, variations in the pyrogallol auto-oxidation rate in the presence of SOD were evaluated. Tests were carried out in triplicate. The objective was to find an inhibitor of the auto-oxidation of pyrogallol in the presence of a SOD enzyme solution. Samples were tested at a concentration of 50 µg/mL, followed by incubation for 4 min at 25 °C. […] The self-oxidation of pyrogallol was evaluated in the absence of the enzyme. For this, 30 µL of pyrogallol was added to 120 µL of tris buffer (in place of the SOD) (pH 8.5), then followed by the same steps of incubating a positive control (without the molecule); this was performed in the presence of 5% of DMSO to evaluate the percentage of SOD inhibition activity on the auto-oxidation of pyrogallol.

MCF7 cells = assay: Cytotoxic activity, MTT assay, MCF7; format: cell-based, human; settings: Homo sapiens, MCF7, 72 h
Description: Optical density was measured at 540 nm. All tests were established in triplicate.

[2] = target: T2, acetylcholinesterase (AChE) (Homo sapiens, UniProt P22303); assay: biochemical
T2 sequence (P22303 32-614, species assumed): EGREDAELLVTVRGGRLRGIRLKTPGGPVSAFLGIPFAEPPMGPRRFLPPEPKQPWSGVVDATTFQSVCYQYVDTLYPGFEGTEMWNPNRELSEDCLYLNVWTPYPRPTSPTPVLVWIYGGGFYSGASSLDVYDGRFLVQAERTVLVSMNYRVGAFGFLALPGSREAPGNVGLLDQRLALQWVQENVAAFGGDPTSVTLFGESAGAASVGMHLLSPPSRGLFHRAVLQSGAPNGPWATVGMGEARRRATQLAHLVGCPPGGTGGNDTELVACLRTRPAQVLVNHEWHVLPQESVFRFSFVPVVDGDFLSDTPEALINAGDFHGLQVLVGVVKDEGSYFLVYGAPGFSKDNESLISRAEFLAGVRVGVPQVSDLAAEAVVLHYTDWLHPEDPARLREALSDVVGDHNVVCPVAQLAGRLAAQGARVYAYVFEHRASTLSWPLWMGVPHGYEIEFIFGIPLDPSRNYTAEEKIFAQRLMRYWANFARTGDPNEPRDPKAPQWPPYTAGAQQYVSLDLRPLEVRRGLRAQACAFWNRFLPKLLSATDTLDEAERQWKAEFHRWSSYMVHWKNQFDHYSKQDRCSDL
Description: The enzymatic activity was assessed via a modified colorimetric Ellman′s method. First, 50 µL of Tris-HCl buffer (pH 8), 25µL of a buffer solution of the sample (50 µg/mL), and 25 µL of an acetylcholinesterase (AChE) enzyme solution containing 2.8 U/mL were mixed. A reaction was then initiated via the addition of 125 µL of 3 mM […]. After incubation for 15 min at 25 °C, 25 µL of a solution of iodide acetylthiocholine15 mM was added to a 96-well microplate. […] Inhibition (%) was calculated in the following way: Inhibition (%) = [(A control − A sample)/A control] × 100, where (A sample) is the absorbance of the molecule containing the reaction and (A control) is the absorbance of the reaction control. Tests were carried out in triplicate.

[3] = ABTS radical cation scavenging assay
Description: ABTS (2,2′-azinobis-3-ethylbenzothiazoline-6-sulfonate) assay
The radical scavenging capacity of antioxidants for the ABTS radical cation was evaluated following this method: ABTS was prepared by adding 7 mM solution of ABTS at pH 7.4 (5 mM NaH2PO4, 5 mM Na2HPO4, and 154 mM NaCl) with 2.5 mM potassium persulfate. The mixture was stored at room temperature for 16 h in the dark before use and prepared […]. Once diluted with persulfate buffer, the absorbance of the mixture yielded an absorbance value of 0.70 ± 0.05 units at 734 nm. Then, 20 µL of each tested sample was mixed with fresh ABTS solution (180 µL), then the absorbance was measured 6 min after the initial mixing. Ascorbic acid was used as a standard. The capacity of free radical scavenging was expressed as a percentage of the inhibition values. The percentage of inhibition is calculated using the same expression employed in the DPPH assay.

OVCAR-3 cells = assay: Cytotoxic activity, MTT assay, OVCAR-3; format: cell-based; settings: Homo sapiens, OVCAR-3, 72 h, read-out: IC50 OVCAR-3
Description: (§1) The cancer cell lines used in this study were HCT116 (colorectal carcinoma), IGROV1 (ovarian cancer), OVCAR3 (ovarian cancer), and MCF7 (mammary gland/breast cancer). […] Cell lines were maintained in culture and were incubated at 37 °C in an incubator with 5% CO2 in a humidified atmosphere. All tests were established at 80% of confluence, and viability was estimated with a trypan blue exclusion assay.
(§2) The cytotoxic activities of molecules against cancer cell lines were evaluated using an MTT assay. The MTT colorimetric assay was performed using 96-well plates. Cells were seeded in a 96-well plate, at a concentration of 10 × 10^3 cells/well for HCT116 and 12 × 10^3 cells/well for MCF7, IGROV1, and OVAR. Adherent cells were dispatched and incubated at 37 °C overnight in a 5% CO2-enriched atmosphere. […] After that, the medium was removed, and cells were treated with 50 µL of 3-(4,5-dimethylthazolk-2-yl)-2,5-diphenyl tetrazolium bromide (MTT) solution (3 mg/mL in PBS) at 37 °C for 20 to 40 min. To dissolve the […], we added 80 µL of 100% DMSO. Optical density was measured at 540 nm. All tests were established in triplicate. […]

[4] = target: T1, superoxide dismutase (SOD); format: biochemical; settings: at 100 µM
SKOV-3 cells = assay: Cytotoxic activity, MTT assay, SKOV-3; format: cell-based, human; settings: Homo sapiens, SK-OV-3, 72 h, read-out: IC50 SKOV-3, MTT, 72 h
xanthine oxidase (XOD) [5] = target: T3, xanthine oxidase (XOD) (Homo sapiens, UniProt P47989); assay: biochemical; settings: read-out: Anti XOD IC50
T3 sequence (P47989 whole entry, species assumed): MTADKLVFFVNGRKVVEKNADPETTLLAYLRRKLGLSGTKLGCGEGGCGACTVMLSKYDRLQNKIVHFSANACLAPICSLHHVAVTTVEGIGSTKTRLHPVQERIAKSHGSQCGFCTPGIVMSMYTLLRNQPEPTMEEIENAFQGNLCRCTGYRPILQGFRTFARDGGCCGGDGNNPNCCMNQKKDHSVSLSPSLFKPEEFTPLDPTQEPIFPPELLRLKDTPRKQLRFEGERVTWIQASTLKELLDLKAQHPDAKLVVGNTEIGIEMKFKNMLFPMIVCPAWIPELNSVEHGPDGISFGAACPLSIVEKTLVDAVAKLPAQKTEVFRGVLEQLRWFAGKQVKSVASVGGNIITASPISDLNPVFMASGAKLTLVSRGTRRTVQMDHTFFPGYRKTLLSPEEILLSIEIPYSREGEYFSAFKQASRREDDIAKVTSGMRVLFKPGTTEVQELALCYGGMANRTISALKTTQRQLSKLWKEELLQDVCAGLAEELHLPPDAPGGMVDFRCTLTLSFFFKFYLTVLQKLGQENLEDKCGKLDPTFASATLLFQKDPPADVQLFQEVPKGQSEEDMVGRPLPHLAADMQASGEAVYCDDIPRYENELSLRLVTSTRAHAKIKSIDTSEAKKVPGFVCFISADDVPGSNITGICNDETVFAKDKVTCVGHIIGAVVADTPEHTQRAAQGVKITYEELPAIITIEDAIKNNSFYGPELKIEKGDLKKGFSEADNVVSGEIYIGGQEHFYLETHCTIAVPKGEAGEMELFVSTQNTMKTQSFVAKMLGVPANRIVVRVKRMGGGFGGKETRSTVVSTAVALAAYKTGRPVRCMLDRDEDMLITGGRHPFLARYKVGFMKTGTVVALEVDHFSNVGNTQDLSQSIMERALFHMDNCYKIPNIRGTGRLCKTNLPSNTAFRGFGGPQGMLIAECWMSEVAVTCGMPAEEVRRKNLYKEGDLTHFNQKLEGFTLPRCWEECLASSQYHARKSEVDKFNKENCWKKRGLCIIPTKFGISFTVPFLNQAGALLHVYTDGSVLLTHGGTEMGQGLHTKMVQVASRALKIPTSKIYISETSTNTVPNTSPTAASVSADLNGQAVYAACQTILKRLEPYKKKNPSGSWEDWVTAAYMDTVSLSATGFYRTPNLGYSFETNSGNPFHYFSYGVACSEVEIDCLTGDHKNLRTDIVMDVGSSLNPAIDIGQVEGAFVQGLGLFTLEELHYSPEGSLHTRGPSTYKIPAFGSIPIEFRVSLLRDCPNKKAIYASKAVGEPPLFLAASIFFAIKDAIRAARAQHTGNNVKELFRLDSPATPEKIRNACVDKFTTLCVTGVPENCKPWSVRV
Description: Anti-xanthine oxidase activity was assayed spectrophotometrically under aerobic conditions. First, 50 µL (50 µg/mL) of samples were added to 60 µL of phosphate buffer (pH 7.5) and 30 µL of xanthine oxidase enzyme solution (0.01 units/mL in phosphate buffer; pH 7.5). After pre-incubation at 25 °C for 15 min, the reaction was initiated by the addition of 60 µL of xanthine substrate solution (prepared in the same buffer). The assay mixture was incubated at 25 °C for 5 min. […] The assay was performed in triplicate. […] Tests were carried out in triplicate.

xanthine oxidase (XOD) [6] = target: T3, xanthine oxidase (XOD); format: biochemical; settings: at 100 µM
[7] = DPPH radical scavenging assay
Description: DPPH• (1-1-diphenyl 2-picryl hydrazyl) assay
This method is based on the spectrophotometric assay using the stable radical, DPPH•, as a reagent. First, 20 µL of each sample (4 mg/mL) was mixed with 180 µL of 0.1 mM DPPH• in methanol, in plates, after an incubation of 25 min in the dark. Absorbance was measured at 517 nm. Ascorbic acid was used as the reference compound. The radical-scavenging activities of molecules, expressed as a percentage inhibition of DPPH•, were calculated according to the following formula: Inhibition (%) = [(A control − A sample)/A control] × 100 where A is the absorbance determined at 517 nm. The absorbance of the solvent and DPPH• radical without the molecule was measured as the control.

[8] = target: T2, acetylcholinesterase (AChE); format: biochemical; settings: at 100 µM
HCT116 cells = assay: Cytotoxic activity, MTT assay, HCT116; format: cell-based, human; settings: Homo sapiens, HCT-116, 72 h, read-out: IC50 HCT116, MTT, 72 h
Description: as §1, §2

α-amylase = target: T4, α-amylase (Homo sapiens, UniProt P04746); assay: Anti-α-amylase activity (starch/DNS)
T4 sequence (P04746 16-511): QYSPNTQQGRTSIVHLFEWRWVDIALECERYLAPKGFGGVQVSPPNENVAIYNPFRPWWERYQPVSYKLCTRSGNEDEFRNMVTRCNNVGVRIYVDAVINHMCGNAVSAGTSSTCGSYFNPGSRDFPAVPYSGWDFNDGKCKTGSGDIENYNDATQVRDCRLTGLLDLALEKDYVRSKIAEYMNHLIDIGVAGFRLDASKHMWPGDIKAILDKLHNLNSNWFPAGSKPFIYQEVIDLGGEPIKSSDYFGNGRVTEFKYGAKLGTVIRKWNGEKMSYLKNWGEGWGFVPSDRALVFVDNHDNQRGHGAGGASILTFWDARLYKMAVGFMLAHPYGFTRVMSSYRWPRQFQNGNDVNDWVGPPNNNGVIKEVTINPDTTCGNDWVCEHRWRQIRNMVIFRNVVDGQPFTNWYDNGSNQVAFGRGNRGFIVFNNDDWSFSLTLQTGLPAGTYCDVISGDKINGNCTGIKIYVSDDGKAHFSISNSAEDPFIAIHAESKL
Description: The α-amylase inhibitory activity (%) value was defined as the percentage decrease in the maltose production rate over the control. […] After 15 min, this mixture was removed from the water bath and diluted with 900 µL of distilled water. The anti-α-amylase activity was determined by measuring the absorbance at 540 nm. Blank incubations were determined as the absorbance produced by samples where the enzyme was replaced with a buffer solution. […] The IC50 values were calculated from the mean values of the percentage of α--amylase inhibition data, determined in triplicate.

T1 sequence (P00441 whole entry): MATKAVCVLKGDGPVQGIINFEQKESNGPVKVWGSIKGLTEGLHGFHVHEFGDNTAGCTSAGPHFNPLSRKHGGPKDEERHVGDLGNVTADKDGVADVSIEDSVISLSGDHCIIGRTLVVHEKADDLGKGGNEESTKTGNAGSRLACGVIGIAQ

Compound	IC50 [1] [µM]	IC50 (MCF7 cells) [µM]	IC50 [2] [µM]	IC50 [3] [µM]	ABTS Assay % ([3]; at 100 µM) [%]	IC50 (OVCAR-3 cells) [µM]	Anti SOD % [4] [%]	IC50 (SKOV-3 cells) [µM]	IC50 (xanthine oxidase (XOD) [5]) [µM]	Anti XOD % (xanthine oxidase (XOD) [6]) [%]	IC50 [7] [µM]	Anti ACHE % [8] [%]	IC50 (HCT116 cells) [µM]	IC50 (α-amylase) [µM]	Anti α-Amylase % (α-amylase; at 100 µM) [%]
CC1OC(Oc2c(-c3cc(O)c(O)c(O)c3)oc3cc(O)cc(O)c3c2=O)C(O)C(O)C1O (stereo not shown) [Molecule M20, myricitrin dihydrate]	> 100	> 50	> 50	> 100	20.3 ± 3.2	> 50	42.4 ± 1.1	> 50	> 100	30.9 ± 2.5	> 100	51.8 ± 3.5	> 50	> 100	
COc1ccc(-c2cc(=O)c3c(O)cc(O[C@@H]4O[C@H](CO[C@@H]5O[C@@H](C)[C@H](O)[C@@H](O)[C@H]5O)[C@@H](O)[C@H](O)[C@H]4O)cc3o2)cc1O [Molecule M19, 3′, 5,7-trihydroxy-4′-methoxyflavone 7-rutinoside]	> 50	> 50	> 100	> 50		> 50	57.8 ± 2.4	40.1 ± 0.9	> 100	45.3 ± 3.2	> 100	37.7 ± 4.6	> 50	3.7 ± 0.3	60.6 ± 4.8
